US7109193B2, “Tricyclic diazepines tocolytic oxytocin receptor antagonists” (Wyeth, priority 2001, dated 2006)

Biological target: T1, human vasopressin V1a receptor subtype (Homo sapiens, UniProt P37288)
T1 construct: host or cells: CHO cells (pZeoSV vector for the Thibonnier line)
Assay: Vasopressin binding in Chinese Hamster Ovary cell membranes expressing human vasopressin V1a subtype receptors
Settings: 100 nM, CHO cell membranes, [3H]Manning ligand, values without parentheses
Procedure, shortened: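 Membranes from CHO cells expressing human V1a receptor were incubated with [3H]Manning ligand (added as 20 μL of 8 nM) in pH 7.4 Tris buffer with MgCl2, BSA and protease inhibitors, 60 min at room temperature. Bound radioactivity was counted after filtration; values are percent inhibition at a stated concentration or IC50.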

T1 sequence (P37288 whole entry): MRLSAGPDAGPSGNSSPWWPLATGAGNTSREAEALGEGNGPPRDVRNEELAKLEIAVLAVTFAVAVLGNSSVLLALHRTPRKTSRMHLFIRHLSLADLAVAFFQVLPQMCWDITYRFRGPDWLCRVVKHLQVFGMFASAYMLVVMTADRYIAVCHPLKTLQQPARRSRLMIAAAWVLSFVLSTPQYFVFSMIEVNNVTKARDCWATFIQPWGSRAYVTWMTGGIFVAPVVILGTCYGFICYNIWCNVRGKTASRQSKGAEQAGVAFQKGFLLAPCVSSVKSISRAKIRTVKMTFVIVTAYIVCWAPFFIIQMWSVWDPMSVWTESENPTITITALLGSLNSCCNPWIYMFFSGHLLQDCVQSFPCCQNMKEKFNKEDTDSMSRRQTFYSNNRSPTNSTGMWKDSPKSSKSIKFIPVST

Row | SMILES | inhibition at 0.1 µM [%]
1 | COc1ccccc1-c1ccc(C(=O)N2Cc3ccc(C(=O)n4ccnc4)n3Cc3ccccc32)cc1OC [Example 293, {10-[(2,2′-Dimethoxy[1,1′-biphenyl]-4-yl)carbonyl]-10,11-dihydro-5H-pyrrolo[2,1-c][1,4]benzodiazepin-3-yl}(1H-imidazol-1-yl)methanone] | 2
2 | CC(C)N1CCN(C(=O)c2ccc3n2Cc2ccccc2N(C(=O)c2ccc(-c4cccc5ccccc45)cc2Cl)C3)CC1 [Example 243, {10-[2-Chloro-4-(1-naphthyl)benzoyl]-10,11-dihydro-5H-pyrrolo[2,1-c][1,4]benzodiazepin-3-yl}(4-isopropyl-1-piperazinyl)methanone] | 5
3 | COc1ccccc1-c1ccc(C(=O)N2Cc3ccc(C(=O)N4CCCN(C)CC4)n3Cc3ccccc32)cc1C [Example 62, {10-[(2′-Methoxy-2-methyl[1,1′-biphenyl]-4-yl)carbonyl]-10,11-dihydro-5H-pyrrolo[2,1-c][1,4]benzodiazepin-3-yl}(4-methyl-1,4-diazepan-1-yl)methanone] | 10
4 | COc1cc(C(=O)N2Cc3ccc(C(=O)N4CCCN(C)CC4)n3Cc3ccccc32)ccc1-c1ccccc1C [Example 66, {10-[(2-Methoxy-2′-methyl[1,1′-biphenyl]-4-yl)carbonyl]-10,11-dihydro-5H-pyrrolo[2,1-c][1,4]benzodiazepin-3-yl}(4-methyl-1,4-diazepan-1-yl)methanone] | 52
5 | COc1ccccc1-c1ccc(C(=O)N2Cc3ccc(C(=O)N[C@@H]4CN5CCC4CC5)n3Cc3ccccc32)cc1OC [Example 300, N-[(3S)-1-Azabicyclo[2.2.2]oct-3-yl]-10-[(2,2′-dimethoxy[1,1′-biphenyl]-4-yl)carbonyl]-10,11-dihydro-5H-pyrrolo[2,1-c][1,4]benzodiazepine-3-carboxamide] | -2
6 | COc1cc(C(=O)N2Cc3ccc(C(=O)N4CCC(N5CCCCC5)CC4)n3Cc3ccccc32)ccc1-n1c(C)ccc1C [Example 311, {10-[4-(2,5-Dimethyl-1H-pyrrol-1-yl)-3-methoxy-benzoyl]-10,11-dihydro-5H-pyrrolo[2,1-c][1,4]benzodiazepin-3-yl}[4-(1-piperidinyl)-1-piperidinyl]-methanone] | -5
7 | COc1cccc(-c2cc(OC)c(C(=O)N3Cc4ccc(C(=O)N5CCN(CCCN(C)C)CC5)n4Cc4ccccc43)cc2Cl)c1 [Example 252, {10-[(6-Chloro-3,3′-dimethoxy[1,1′-biphenyl]-4-yl)carbonyl]-10,11-dihydro-5H-pyrrolo[2,1-c][1,4]benzodiazepin-3-yl}{4-[3-(dimethylamino)propyl]-1-piperazinyl}methanone] | 8
8 | COc1cccc(-c2cc(OC)c(C(=O)N3Cc4ccc(C(=O)N5CCN(C)CC5)n4Cc4ccccc43)cc2Cl)c1 [Example 54, {10-[(6-Chloro-3,3′-dimethoxy[1,1′-biphenyl]-4-yl)carbonyl]-10,11-dihydro-5H-pyrrolo[2,1-c][1,4]benzodiazepin-3-yl}(4-methyl-1-piperazinyl)methanone] | -4
9 | COc1cccc(-c2ccc(C(=O)N3Cc4ccc(C(=O)N5CCCN(C)CC5)n4Cc4ccccc43)cc2C)c1 [Example 64, {10-[(3′-Methoxy-2-methyl[1,1′-biphenyl]-4-yl)carbonyl]-10,11-dihydro-5H-pyrrolo[2,1-c][1,4]benzodiazepin-3-yl}(4-methyl-1,4-diazepan-1-yl)methanone] | 13
10 | COc1cc(C(=O)N2Cc3ccc(C(=O)N4CCN(C)CC4)n3Cc3ccccc32)ccc1-c1cccc2ccccc12 [Example 55, {10-[3-Methoxy-4-(1-naphthyl)benzoyl]-10,11-dihydro-5H-pyrrolo[2,1-c][1,4]benzodiazepin-3-yl}(4-methyl-1-piperazinyl)methanone] | 4
11 | Cc1cc(C(=O)N2Cc3ccc(C(=O)n4ccnc4)n3Cc3ccccc32)ccc1-c1ccccc1C(F)(F)F [Example 294, 1H-Imidazol-1-yl(10-{[2-methyl-2′-(trifluoromethyl)[1,1′-biphenyl]-4-yl]carbonyl}-10,11-dihydro-5H-pyrrolo[2,1-c][1,4]benzodiazepin-3-yl)methanone] | -3
12 | COc1cc(C(=O)N2Cc3ccc(C(=O)N4CCN(C)CC4)n3Cc3ccccc32)ccc1-c1ccccc1C [Example 53, {10-[(2-Methoxy-2′-methyl[1,1′-biphenyl]-4-yl)carbonyl]-10,11-dihydro-5H-pyrrolo[2,1-c][1,4]benzodiazepin-3-yl}(4-methyl-1-piperazinyl)methanone] | 38
13 | COc1cc(C(=O)N2Cc3ccc(C(=O)NCCCN(C)C)n3Cc3ccccc32)ccc1-c1ccccc1C [Example 77, N-[3-(Dimethylamino)propyl]-10-[(2-methoxy-2′-methyl[1,1′-biphenyl]-4-yl)carbonyl]-10,11-dihydro-5H-pyrrolo[2,1-c][1,4]benzodiazepine-3-carboxamide] | 44
14 | Cc1cc(C(=O)N2Cc3cccn3Cc3ccccc32)cc(C)c1-n1c(C)ccc1C [Example 30, [4-(2,5-Dimethyl-1H-pyrrol-1-yl)-3,5-dimethyl-phenyl][10,11-dihydro-5H-pyrrolo[2,1-c][1,4]benzodiazepin-10-yl]methanone] | 8
15 | COc1cc(-c2ccccc2C)c(Cl)cc1C(=O)N1Cc2ccc(C(=O)N3CCN(CCCN(C)C)CC3)n2Cc2ccccc21 [Example 251, {10-[(6-Chloro-3-methoxy-2′-methyl[1,1′-biphenyl]-4-yl)carbonyl]-10,11-dihydro-5H-pyrrolo[2,1-c][1,4]benzodiazepin-3-yl}{4-[3-(dimethylamino)propyl]-1-piperazinyl}methanone] | 6
16 | COc1cc(C(=O)N2Cc3ccc(C(=O)n4ccnc4)n3Cc3ccccc32)ccc1-c1ccccc1C [Example 290, 1H-Imidazol-1-yl-{10-[(2-methoxy-2′-methyl[1,1′-biphenyl]-4-yl)carbonyl]-10,11-dihydro-5H-pyrrolo[2,1-c][1,4]benzodiazepin-3-yl}methanone] | 47
17 | CCOc1ccccc1-c1cc(OC)c(C(=O)N2Cc3cccn3Cc3ccccc32)cc1Cl [Example 17, 10-{[6-Chloro-3-methoxy-2′-ethoxy[1,1′-biphenyl]-4-yl]carbonyl}-10,11-dihydro-5H-pyrrolo[2,1-c][1,4]benzodiazepine] | -11
18 | COc1ccccc1-c1ccc(C(=O)N2Cc3ccc(C(=O)N[C@H]4CN5CCC4CC5)n3Cc3ccccc32)cc1C [Example 298, N-[(3R)-1-Azabicyclo[2.2.2]oct-3-yl]-10-[(2′-methoxy-2-methyl[1,1′-biphenyl]-4-yl)carbonyl]-10,11-dihydro-5H-pyrrolo[2,1-c][1,4]benzodiazepine-3-carboxamide] | 20
19 | COc1cccc(-c2ccc(C(=O)N3Cc4ccc(C(=O)N5CCN(C)CC5)n4Cc4ccccc43)cc2C)c1 [Example 51, {10-[(3′-Methoxy-2-methyl[1,1′-biphenyl]-4-yl)carbonyl]-10,11-dihydro-5H-pyrrolo[2,1-c][1,4]benzodiazepin-3-yl}(4-methyl-1-piperazinyl)methanone] | 14
20 | COc1cc(C(=O)N2Cc3ccc(C(=O)N4CCN(CCCN(C)C)CC4)n3Cc3ccccc32)ccc1-n1c(C)ccc1C [Example 320, {4-[3-(Dimethylamino)propyl]-1-piperazinyl}{10-[4-(2,5-dimethyl-1H-pyrrol-1-yl)-3-methoxybenzoyl]-10,11-dihydro-5H-pyrrolo[2,1-c][1,4]benzodiazepin-3-yl}methanone] | 4
21 | CN(C)CCCN1CCN(C(=O)c2ccc3n2Cc2ccccc2N(C(=O)c2ccc(-c4cccc5ccccc45)cc2Cl)C3)CC1 [Example 256, {10-[2-Chloro-4-(1-naphthyl)benzoyl]-10,11-dihydro-5H-pyrrolo[2,1-c][1,4]benzodiazepin-3-yl}{4-[3-(dimethylamino)propyl]-1-piperazinyl}methanone] | 7
22 | COc1ccccc1-c1ccc(C(=O)N2Cc3ccc(C(=O)N4CCN(C)CC4)n3Cc3ccccc32)cc1C [Example 49, {10-[(2′-Methoxy-2-methyl[1,1′-biphenyl]-4-yl)carbonyl]-10,11-dihydro-5H-pyrrolo[2,1-c][1,4]benzodiazepin-3-yl}(4-methyl-1-piperazinyl)methanone] | 5
23 | Cc1ccccc1-c1ccc(C(=O)N2Cc3ccc(C(=O)N4CCN(CCCN(C)C)CC4)n3Cc3ccccc32)cc1 [Example 249, {4-[3-(Dimethylamino)propyl]-1-piperazinyl}{10-[(2′-methyl[1,1′-biphenyl]-4-yl)carbonyl]-10,11-dihydro-5H-pyrrolo[2,1-c][1,4]benzodiazepin-3-yl}methanone] | 12
24 | COc1ccccc1-c1ccc(C(=O)N2Cc3ccc(C(=O)NCCCN(C)C)n3Cc3ccccc32)cc1C [Example 72, N-[3-(Dimethylamino)propyl]-10-[(2′-methoxy-2-methyl[1,1′-biphenyl]-4-yl)carbonyl]-10,11-dihydro-5H-pyrrolo[2,1-c][1,4]benzodiazepine-3-carboxamide] | 8
25 | Cc1cc(C(=O)N2Cc3cccn3Cc3ccccc32)ccc1-c1ccncc1 [Example 31, [3-Methyl-4-(4-pyridinyl)phenyl]-[10,11-dihydro-5H-pyrrolo[2,1-c][1,4]benzodiazepin-10-yl]methanone] | 30
26 | COc1cccc(-c2ccc(C(=O)N3Cc4ccc(C(=O)n5ccnc5)n4Cc4ccccc43)cc2C)c1 [Example 289, 1H-Imidazol-1-yl-{10-[(3′-methoxy-2-methyl[1,1′-biphenyl]-4-yl)carbonyl]-10,11-dihydro-5H-pyrrolo[2,1-c][1,4]benzodiazepin-3-yl}methanone] | 6
